Reference: ChEMBL document CHEMBL3046441, “Importance of physicochemical properties for the design of new pesticides” (J Agric Food Chem, 2011)

Columns and labels:
[1] = biological target: T1, Nicotinic acetylcholine receptor alpha8 subunit (Periplaneta americana) (UniProt H6TY12); experiment: Neuroblocking activity in Periplaneta americana (American cockroach) nicotinic acetylcholine receptor in abdominal fifth and sixth ganglia nerve assessed as neuroblocking concentration by neurophysiological test
T1 sequence (whole entry): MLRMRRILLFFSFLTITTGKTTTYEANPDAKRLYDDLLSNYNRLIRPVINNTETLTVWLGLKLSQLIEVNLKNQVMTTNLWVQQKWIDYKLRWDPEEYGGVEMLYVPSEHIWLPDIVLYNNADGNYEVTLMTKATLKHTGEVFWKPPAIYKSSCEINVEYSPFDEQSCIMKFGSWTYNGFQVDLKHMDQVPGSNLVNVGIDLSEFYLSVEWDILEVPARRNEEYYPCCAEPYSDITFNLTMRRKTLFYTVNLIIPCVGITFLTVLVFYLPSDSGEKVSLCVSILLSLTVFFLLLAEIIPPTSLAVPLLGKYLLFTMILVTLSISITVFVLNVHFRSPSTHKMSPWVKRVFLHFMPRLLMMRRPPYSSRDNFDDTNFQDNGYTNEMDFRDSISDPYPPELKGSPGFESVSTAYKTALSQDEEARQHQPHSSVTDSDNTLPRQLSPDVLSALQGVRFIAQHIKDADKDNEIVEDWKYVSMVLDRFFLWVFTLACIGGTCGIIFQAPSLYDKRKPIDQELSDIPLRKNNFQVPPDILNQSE

[2] = system: Periplaneta americana; experiment: Toxic effect in Periplaneta americana (American cockroach) assessed as paralyzed insects after 24 hr of abdomen compound injection by insecticidal assay; type: functional
[3] = Apparent hydrophobicity, log D of the compound in Octanol-buffer; type: physicochemical; settings: for logD: octanol/buffer; for logD(app): octanol/water
[4] = Dissociation constant, pKa of the compound at pH 7.3; type: physicochemical
[5] = Hydrophobicity, log P of the compound in octanol-water by shaking-flask method; type: physicochemical

Row | Structure (SMILES) | logD [3] | pKa [4] | also measured
1 | O=[N+]([O-])Nc1nccn1Cc1ccc(Cl)nc1 [DEHYDROIMIDACLOPRID] |  |  | log(1/BC) [1]: 4.31; log(1/MLD) [2]: 8.72
2 | CC(C)(C)N(NC(=O)c1ccccc1)C(=O)c1ccccc1 [RH-5849] | 2.45 | 0 | 
3 | O=[N+]([O-])/C=C1\CCCN1Cc1cnc(Cl)s1 |  |  | log(1/BC) [1]: 6.31; log(1/MLD) [2]: 10.06
4 | CN1CCN(CC(=O)N2c3ccccc3C(=O)Nc3cccnc32)CC1 [PIRENZEPINE] |  | 0.7 | logD(app) [3]: -0.37
5 | O=[N+]([O-])/N=c1\ccccn1Cc1cnc(Cl)s1 |  |  | log(1/BC) [1]: 5.75; log(1/MLD) [2]: 9.74
6 | CCNc1nc(Cl)nc(NC(C)C)n1 [ATRAZINE] | 2.61 |  | 
7 | Cc1c(F)c(F)c(COC(=O)[C@@H]2[C@H](/C=C(\Cl)C(F)(F)F)C2(C)C)c(F)c1F [TEFLUTHRIN] |  |  | logP [5]: 6
8 | O=[N+]([O-])/N=c1\[nH]ccn1Cc1cnc(Cl)s1 |  |  | log(1/BC) [1]: 4.61; log(1/MLD) [2]: 8.82
9 | O=[N+]([O-])/N=c1\sccn1Cc1ccc(Cl)nc1 |  |  | log(1/BC) [1]: 5.68; log(1/MLD) [2]: 10.25
10 | CCn1cc(C(=O)O)c(=O)c2cc(F)c(N3CCNCC3)cc21 [NORFLOXACIN] |  | 2.08 | logD(app) [3]: -2.42
11 | CNC(=C[N+](=O)[O-])NCCSCc1ccc(CN(C)C)o1 [RANITIDINE] |  | 0.88 | logD(app) [3]: -0.32
12 | CCC(C)c1ccccc1OC(=O)NC (stereo not given) [FENOBUCARB] | 2.78 | 0 | 
13 | CCOP(=S)(OCC)Oc1cc(C)nc(C(C)C)n1 [DIMPYLATE] | 3.3 |  | 
14 | COc1cccc(C(=O)NN(C(=O)c2cc(C)cc(C)c2)C(C)(C)C)c1C [METHOXYFENOZIDE] | 3.7 | 0 | 
15 | O=[N+]([O-])NC1=NCCN1Cc1ccc(Cl)nc1 [IMIDACLOPRID] | 0.59 | 0 | 
16 | CC(=O)Nc1ccc(OCC(O)CNC(C)C)cc1 (stereo not given) [PRACTOLOL] | -0.62 | 2.1 | 
17 | C=CCOc1ccccc1OCC(O)CNC(C)C (stereo not given) [OXPRENOLOL] | 0.56 | 2.3 | 
18 | CCOC(=O)C(SP(=S)(OC)OC)c1ccccc1 (stereo not given) [PHENTHOATE] | 3.96 | 0 | logP [5]: 3.96
19 | COCCc1ccc(OCC(O)CNC(C)C)cc1 (stereo not given) [METOPROLOL] | 0.24 |  | 
20 | CC(C)NCC(O)COc1cccc2[nH]ccc12 (stereo not given) [PINDOLOL] | 0.25 | 2.24 | 
21 | CC(=O)Nc1ccc(O)cc1 [ACETAMINOPHEN] |  | 0 | 
22 | COP(=S)(OC)Oc1ccc(SC)c(C)c1 [FENTHION] | 4.09 | 0 | 

Row | Structure (SMILES) | logD [3] | pKa [4] | also measured
23 | O=C1NC(=O)C(c2ccccc2)(c2ccccc2)N1 [PHENYTOIN] | 2.26 |  | 
24 | O=[N+]([O-])/C=C1\NCCN1Cc1cnc(Cl)s1 |  |  | log(1/BC) [1]: 5.73; log(1/MLD) [2]: 10.24
25 | CCc1ccc(C(=O)NN(C(=O)c2cc(C)cc(C)c2)C(C)(C)C)cc1 [TEBUFENOZIDE] |  | 0 | 
26 | COP(=S)(OC)Oc1ccc([N+](=O)[O-])c(C)c1 [FENITROTHION] | 3.3 | 0 | 
27 | COc1ccc(CCN(C)CCCC(C#N)(c2ccc(OC)c(OC)c2)C(C)C)cc1OC (stereo not given) |  | 1.36 | 
28 | O=C(N[C@H](CO)[C@H](O)c1ccc([N+](=O)[O-])cc1)C(Cl)Cl [CHLORAMPHENICOL] |  | 0 | 
29 | O=[N+]([O-])/N=C1\SCCN1Cc1cnc(Cl)s1 |  |  | log(1/BC) [1]: 6; log(1/MLD) [2]: 8.91
30 | O=[N+]([O-])/C=C1\NCCN1Cc1ccc(Cl)nc1 |  |  | log(1/BC) [1]: 5.02; log(1/MLD) [2]: 10.19
31 | CN1CCN(Cc2ccc(Cl)nc2)/C1=N/[N+](=O)[O-] |  |  | log(1/BC) [1]: 3.81; log(1/MLD) [2]: 8.62
32 | CC(C)(C)N(NC(=O)c1ccc(Cl)cc1)C(=O)c1ccccc1 [HALOFENOZIDE] | 3.22 | 0 | 
33 | CC(C)Cc1ccc(C(C)C(=O)O)cc1 (stereo not given) [IBUPROFEN] | 1.54 |  | 
34 | C[C@]12C[C@H](O)[C@H]3[C@@H](CCC4=CC(=O)CC[C@@]43C)[C@@H]1CC[C@@H]2C(=O)CO [CORTICOSTERONE] | 1.94 | 0 | 
35 | CC(C)(C)NCC(O)COc1cccc2c1CC(O)C(O)C2 (stereo not given) [NADOLOL] | -0.88 | 2.37 | 
36 | C[C@]12CC[C@H]3[C@@H](CCC4=CC(=O)CC[C@@]43C)[C@@H]1CC[C@@H]2O [TESTOSTERONE] |  | 0 | 
37 | Cc1c(N(C)C)c(=O)n(-c2ccccc2)n1C [AMINOPYRINE] |  | 0 | 
38 | CC(C)c1cc(NC(=O)N(C)C)no1 [ISOURON] |  |  | logP [5]: 1.98
39 | O=[N+]([O-])/N=C1\NCCN1Cc1ccc(Cl)nc1 [IMIDACLOPRID] |  |  | log(1/BC) [1]: 5.64; log(1/MLD) [2]: 10.15
40 | O=[N+]([O-])/N=C1\NCCN1Cc1cnc(Cl)s1 [IMIDACLOTHIZ] |  |  | log(1/BC) [1]: 5.97; log(1/MLD) [2]: 9.62
41 | CCN(CC)C(=O)SCc1ccc(Cl)cc1 [THIOBENCARB] | 3.42 | 0 | 
42 | Cc1cc(C)cc(C(=O)N(NC(=O)c2ccc3c(c2C)CCCO3)C(C)(C)C)c1 [CHROMAFENOZIDE] | 2.7 |  | 
43 | O=[N+]([O-])/C=C1\SCCN1Cc1ccc(Cl)nc1 |  |  | log(1/BC) [1]: 6.19; log(1/MLD) [2]: 10.37
44 | CCCN(CCC)c1c([N+](=O)[O-])cc(C(F)(F)F)cc1[N+](=O)[O-] [TRIFLURALIN] |  |  | logP [5]: 5.07

Row | Structure (SMILES) | logD [3] | pKa [4] | also measured
45 | CN1C(C(=O)Nc2ccccn2)=C(O)c2ccccc2S1(=O)=O [PIROXICAM] | 0.49 |  | 
46 | CCOP(=S)(NC(C)CC)Oc1cc(C)ccc1[N+](=O)[O-] (stereo not given) [BUTAMIFOS] | 4.62 | 0 | 
47 | CCCC(=O)Nc1ccc(OCC(O)CNC(C)C)c(C(C)=O)c1 (stereo not given) [ACEBUTOLOL] |  | 2.11 | 
48 | COP1(=S)OCc2ccccc2O1 (stereo not given) [SALITHION] | 2.67 | 0 | 
49 | COc1ccc([C@@H]2Sc3ccccc3N(CCN(C)C)C(=O)[C@@H]2OC(C)=O)cc1 [DILTIAZEM] | 2.29 | 0.76 | 
50 | C=CCc1ccccc1OCC(O)CNC(C)C (stereo not given) [ALPRENOLOL] | 1.35 |  | logP [5]: 2.89
51 | CC(C(=O)O)c1cccc(C(=O)c2ccccc2)c1 (stereo not given) [KETOPROFEN] | 1.1 |  | 
52 | CC(CCc1ccccc1)NCC(O)c1ccc(O)c(C(N)=O)c1 (stereo not given) [LABETALOL] | 1.68 | 2.1 | 
53 | C[C@]12C=CC(=O)C=C1CC[C@@H]1[C@@H]2[C@@H](O)C[C@@]2(C)[C@H]1CC[C@]2(O)C(=O)CO [PREDNISOLONE] |  | 0 | 
54 | O=c1ccc2ccccc2o1 [COUMARIN] |  | 0 | 
55 | O=[N+]([O-])/N=c1\sccn1Cc1cnc(Cl)s1 |  |  | log(1/BC) [1]: 5.79; log(1/MLD) [2]: 8.85
56 | O=[N+]([O-])/N=c1\ccccn1Cc1ccc(Cl)nc1 |  |  | log(1/BC) [1]: 5.09; log(1/MLD) [2]: 9.99
57 | Cc1cc(=O)n(-c2ccccc2)n1C [ANTIPYRINE] |  | 0 | 
58 | O=[N+]([O-])/C=C1\CCCN1Cc1ccc(Cl)nc1 |  |  | log(1/BC) [1]: 6.43; log(1/MLD) [2]: 10.44
59 | COc1nn(CSP(=S)(OC)OC)c(=O)s1 [METHIDATHION] | 2.5 | 0 | 
60 | C[C@]12CCC(=O)C=C1CC[C@@H]1[C@@H]2[C@@H](O)C[C@@]2(C)[C@H]1CC[C@]2(O)C(=O)CO [HYDROCORTISONE] | 1.61 | 0 | 
61 | O=[N+]([O-])/N=C1\NCCCN1Cc1ccc(Cl)nc1 |  |  | log(1/BC) [1]: 5.35; log(1/MLD) [2]: 10.12
62 | C[C@@H]1C[C@H]2[C@@H]3CCC4=CC(=O)C=C[C@]4(C)[C@@]3(F)[C@@H](O)C[C@]2(C)[C@@]1(O)C(=O)CO [DEXAMETHASONE] | 2.01 | 0 | 
63 | Clc1cccc(Cl)c1N=C1NCCN1 [CLONIDINE] | 0.93 | 0.75 | 
64 | CN1CCN(Cc2ccc(Cl)nc2)/C1=C/[N+](=O)[O-] |  |  | log(1/BC) [1]: 3.84; log(1/MLD) [2]: 8.07
65 | CC(C)N1C(=O)c2ccccc2NS1(=O)=O [BENTAZON] |  |  | logP [5]: 2.8
66 | O=C(O)c1ccccc1O [SALICYLIC ACID] | -0.63 |  | 
